Measured values published in ChEMBL document CHEMBL5050844 (2019).

Assays:
[1] = Induction of anti-CD3/CD28 antibodies-stimulated human CD8+ T cell activation at 1.11 uM assessed fold increase in cell proliferation measured by flow cytometry analysis; assay type: functional, T cell line
[2] = Induction of activation of human CD56+ CD3- NK cells co-cultured with human K562 cells in 1:1 ratio and assessed as increase in TNF-alpha secretion at 0.625 uM measured by ELISA assay; assay type: functional, Natural killer cell
[3] = Induction of anti-CD3/CD28 antibodies-stimulated human CD8+ T cell activation at 10 uM assessed fold increase in cell proliferation measured by flow cytometry analysis; assay type: functional, T cell line
[4] = Induction of anti-CD3/CD28 antibodies-stimulated human CD8+ T cell activation at 1.11 uM assessed fold increase in CD69 expression measured by flow cytometry analysis; assay type: functional, T cell line
[5] = Induction of anti-CD3 antibodies-stimulated human exhausted T cell activation assessed fold increase in GM-CSF secretion measured by ELISA assay; assay type: functional, T cell line; also: reference of the scale not given here
[6] = Induction of anti-CD3 antibodies-stimulated human exhausted T cell activation assessed fold increase in IL-2 secretion measured by ELISA assay; assay type: functional, T cell line; also: reference of the scale not given here
[7] = Induction of anti-CD3/CD28 antibodies-stimulated human CD4+ T cell activation at 1.11 uM assessed fold increase in cell proliferation measured by flow cytometry analysis; assay type: functional, T cell line
[8] = Induction of anti-CD3 antibodies-stimulated human CD8+ T cell activation at 10 uM assessed fold increase in CD69 expression measured by flow cytometry analysis; assay type: functional, T cell line; also: reference of the scale not given here
[9] = Induction of activation of human CD56+ CD3- NK cells co-cultured with human K562 cells in 1:1 ratio and assessed as increase in IFN-gamma secretion at 0.625 uM measured by ELISA assay; assay type: functional, Natural killer cell
[10] = Induction of anti-CD3 antibodies-stimulated human exhausted CD4+ T cell activation assessed fold increase in CTLA4 expression measured by flow cytometry analysis; assay type: functional, T cell line; also: reference of the scale not given here
[11] = Induction of activation of human CD56+ CD3- NK cells co-cultured with human K562 cells in 1:1 ratio and assessed as increase in IFN-gamma secretion at 10 uM measured by ELISA assay; assay type: functional, Natural killer cell
[12] = Induction of anti-CD3 antibodies-stimulated human T cell activation at 1 uM assessed fold increase in CD25 expression measured by ELISA assay; assay type: functional, T cell line; also: reference of the scale not given here
[13] = Induction of anti-CD3 antibodies-stimulated human CD4+ T cell activation at 1.11 uM assessed fold increase in CD69 expression measured by flow cytometry analysis; assay type: functional, T cell line; also: reference of the scale not given here
[14] = Induction of anti-CD3/CD28 antibodies-stimulated human T cell activation at 1 uM assessed fold increase in CD25 expression measured by ELISA assay; assay type: functional, T cell line
[15] = Induction of anti-CD3 antibodies-stimulated human exhausted T cell activation assessed fold increase in IFN-gamma secretion measured by ELISA assay; assay type: functional, T cell line; also: reference of the scale not given here
[16] = Induction of anti-CD3/CD28 antibodies-stimulated human T cell activation at 0.3 uM assessed fold increase in IL-2 secretion measured by ELISA assay; assay type: functional, T cell line
[17] = Induction of allogenic human T cell activation at 3 uM assessed fold increase in cell proliferation; assay type: functional, T cell line
[18] = Induction of anti-CD3 antibodies-stimulated human CD8+ T cell activation at 1.11 uM assessed fold increase in CD69 expression measured by flow cytometry analysis; assay type: functional, T cell line; also: reference of the scale not given here
[19] = Induction of anti-CD3/CD28 antibodies-stimulated human CD4+ T cell activation at 10 uM assessed fold increase in cell proliferation measured by flow cytometry analysis; assay type: functional, T cell line
[20] = Induction of anti-CD3 antibodies-stimulated human T cell activation at 8 uM assessed fold increase in IL-2 secretion measured by ELISA assay; assay type: functional, T cell line; also: reference of the scale not given here
[21] = Induction of anti-CD3 antibodies-stimulated human CD4+ T cell activation at 10 uM assessed fold increase in CD69 expression measured by flow cytometry analysis; assay type: functional, T cell line; also: reference of the scale not given here
[22] = Induction of anti-CD3/CD28 antibodies-stimulated human T cell activation at 4 uM assessed fold increase in IL-2 secretion measured by ELISA assay; assay type: functional, T cell line
[23] = Induction of allogenic human T cell activation at 10 uM assessed fold increase in cell proliferation; assay type: functional, T cell line
B cell = experiment: Induction of anti-IgM-stimulated human CD20+ B cell activation at 10 to 1000 uM assessed as increase in CD69 expression measured as mean fluorescence intensity AUC by flow cytometry analysis; assay type: functional, cell-based; conditions: dose 10-1000 µM
[24] = Induction of activation of human CD56+ CD3- NK cells co-cultured with human K562 cells in 1:1 ratio and assessed as increase in TNF-alpha secretion at 2.5 uM measured by ELISA assay; assay type: functional, Natural killer cell
[25] = Induction of anti-CD3 antibodies-stimulated human T cell activation at 8 uM assessed fold increase in CD25 expression measured by ELISA assay; assay type: functional, T cell line; also: reference of the scale not given here
[26] = Induction of anti-CD3/CD28 antibodies-stimulated human anergic T cell activation at 1.11 uM assessed fold increase in IFN-gamma secretion measured by ELISA assay; assay type: functional, T cell line
[27] = Induction of anti-CD3/CD28 antibodies-stimulated human T cell activation at 0.3 uM assessed fold increase in CD25 expression measured by ELISA assay; assay type: functional, T cell line
[28] = Induction of anti-CD3 antibodies-stimulated human T cell activation at 1 uM assessed fold increase in IL-2 secretion measured by ELISA assay; assay type: functional, T cell line; also: reference of the scale not given here
[29] = Induction of anti-CD3/CD28 antibodies-stimulated human CD4+ T cell activation at 10 uM assessed fold increase in CD69 expression measured by flow cytometry analysis; assay type: functional, T cell line
[30] = Induction of anti-CD3/CD28 antibodies-stimulated human anergic T cell activation at 10 uM assessed fold increase in IFN-gamma secretion measured by ELISA assay; assay type: functional, T cell line
[31] = Induction of anti-CD3/CD28 antibodies-stimulated human T cell activation at 4 uM assessed fold increase in CD25 expression measured by ELISA assay; assay type: functional, T cell line
[32] = Induction of anti-CD3/CD28 antibodies-stimulated human T cell activation at 10 uM assessed fold increase in IFN-gamma secretion measured by ELISA assay; assay type: functional, T cell line
[33] = Induction of anti-CD3 antibodies-stimulated human T cell activation at 1.11 uM assessed fold increase in GM-CSF secretion measured by ELISA assay; assay type: functional, T cell line; also: reference of the scale not given here
[34] = Induction of anti-CD3 antibodies-stimulated human T cell activation at 1.11 uM assessed fold increase in IFN-gamma secretion measured by ELISA assay; assay type: functional, T cell line; also: reference of the scale not given here
[35] = Induction of anti-CD3/CD28 antibodies-stimulated human T cell activation at 10 uM assessed fold increase in GM-CSF secretion measured by ELISA assay; assay type: functional, T cell line
[36] = Induction of anti-CD3 antibodies-stimulated human T cell activation at 10 uM assessed fold increase in GM-CSF secretion measured by ELISA assay; assay type: functional, T cell line; also: reference of the scale not given here
[37] = Induction of anti-CD3 antibodies-stimulated human T cell activation at 10 uM assessed fold increase in IFN-gamma secretion measured by ELISA assay; assay type: functional, T cell line; also: reference of the scale not given here
[38] = Induction of anti-CD3/CD28 antibodies-stimulated human T cell activation at 1.11 uM assessed fold increase in IFN-gamma secretion measured by ELISA assay; assay type: functional, T cell line

Compound | fold change (FC) [1] | fold change (FC) [2] | fold change (FC) [3] | fold change (FC) [4] | fold change (FC) [5] | fold change (FC) [6] | fold change (FC) [7] | fold change (FC) [8] | fold change (FC) [9] | fold change (FC) [10] | fold change (FC) [11] | fold change (FC) [12] | fold change (FC) [13] | fold change (FC) [14] | fold change (FC) [15] | fold change (FC) [16] | fold change (FC) [17] | fold change (FC) [18] | fold change (FC) [19] | fold change (FC) [21] | further results
C[C@@H](Sc1nncn1C)c1cccc(NC(=O)c2cccc(C(F)(F)F)n2)c1 | 2.01 | 1.01 | >4 | <=1.2 | <=1.4 | <=2.5 | 3.01 | 1.201 | <=1 | <=1.4 | 1.01 | <=0.6 | >1.601 | 1.01 | <=1.4 | 1.01 | <=2 | 1.201 | >4 | 1.401 | fold change (FC) [20]: 0.051; fold change (FC) [22]: 1.01; fold change (FC) [23]: <=2; AUC (B cell): < 0.5; fold change (FC) [24]: 1.01; fold change (FC) [25]: 0.601; fold change (FC) [26]: <=2.5; fold change (FC) [27]: 1.01; fold change (FC) [28]: 0.051; fold change (FC) [29]: 1.401; fold change (FC) [30]: <=2.5; fold change (FC) [31]: 1.01
COC1CN(Cc2cc3c(c(C(F)(F)F)c2)CN(c2cccc([C@@](C)(F)C(F)(F)c4nncn4C)c2)C3=O)C1 | 3.01 | 1.01 | >4 | 1.201 | >1.61 | <=2.5 | >4 | 1.401 | 2.01 | >1.61 | >=5 | >=1.001 | 1.401 | 1.31 | >1.61 | 2.51 | <=2 | 1.201 | >4 | >1.601 | fold change (FC) [32]: 2.01; fold change (FC) [33]: 1.51; fold change (FC) [34]: 3.01; fold change (FC) [35]: 2.01; fold change (FC) [36]: 2.01; fold change (FC) [20]: >=0.201; fold change (FC) [37]: 3.01; fold change (FC) [22]: >=7.5; fold change (FC) [38]: <=2; fold change (FC) [23]: <=2; fold change (FC) [24]: 2.01; fold change (FC) [25]: >=1.001; fold change (FC) [26]: 2.51; fold change (FC) [27]: 1.01; fold change (FC) [28]: 0.151; fold change (FC) [29]: 1.401; fold change (FC) [30]: >4.01; fold change (FC) [31]: 1.31
Cn1cnnc1CC1(c2cccc(N3Cc4c(cc(CN5CCC6(CC6)C5)cc4C(F)(F)F)C3=O)c2)COC1 | >4 | 2.01 | >4 | 1.201 | 1.41 | 2.51 | >4 | 1.401 | 2.01 | >1.61 | >=5 | >=1.001 | >1.601 | 1.31 | <=1.4 | >=7.5 | >3 | 1.401 | >4 | >1.601 | fold change (FC) [32]: >4; fold change (FC) [33]: 2.01; fold change (FC) [34]: >4; fold change (FC) [35]: >4; fold change (FC) [36]: >4; fold change (FC) [37]: >4; fold change (FC) [38]: >4; fold change (FC) [23]: >3; AUC (B cell): > 1.51; fold change (FC) [24]: >=5; fold change (FC) [26]: 2.51; fold change (FC) [27]: 1.31; fold change (FC) [28]: >=0.201; fold change (FC) [29]: >1.601; fold change (FC) [30]: >4.01
